Data: patent US12398097B2, “WDR5-MYC inhibitors” (Vanderbilt University, priority 2019, dated 2025)
One block for each compound: values may come before it.

Target: WDR5 (Homo sapiens, UniProt P61964)
Assay: Competition-based fluorescence polarization anisotropy assay
Conditions: binding to WDR5; displacement of FITC-labeled small molecule probe (analogous to Example J2 or HCH-25) or peptide probe FITC-AHx-SEEEIDVVSV; pH 6.0; Ki converted from IC50
Method in brief: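 Ki values derive from displacement of either a fluorescent small-molecule probe or a FITC-peptide probe from WDR5, monitored by fluorescence polarization. Assay run at pH 6.0 in 200 mM phosphate with 300 mM NaCl, 0.5 mM TCEP and 0.1% Chaps.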

Compound: O=S(=O)(Nc1cc(Cl)cc(S(=O)(=O)NCC2CCCO2)c1O)c1cc(Br)ccc1O (stereo not shown) [Example S32-2, 5-Bromo-N-(5-chloro-2-hydroxy-3-(N-((tetrahydrofuran-2-yl)methyl)sulfamoyl)phenyl)-2-hydroxybenzenesulfonamide]
- Ki: 530 nM

Compound: CN1CCN(CCNS(=O)(=O)c2cc(Cl)cc(NS(=O)(=O)c3cc(Br)cc(Cl)c3O)c2O)CC1 [Example S33, 5-Bromo-3-chloro-N-(5-chloro-2-hydroxy-3-(N-(2-(4-methylpiperazin-1-yl)ethyl)sulfamoyl)phenyl)-2-hydroxybenzenesulfonamide]
- Ki: 730 nM

Compound: CC(C)N(CCSc1cc(Cl)cc(NS(=O)(=O)c2cc(Br)cc(Cl)c2O)c1)C(C)C [Example S36, 5-Bromo-3-chloro-N-(3-chloro-5-((2-(diisopropylamino)ethyl)thio)phenyl)-2-hydroxybenzenesulfonamide]
- Ki: 780 nM

Compound: CC(C)N(CCS(=O)(=O)c1cc(Cl)cc(NS(=O)(=O)c2cc(Br)cc(Cl)c2O)c1)C(C)C [Example S37, 5-Bromo-3-chloro-N-(3-chloro-5-((2-(diisopropylamino)ethyl)sulfonyl)phenyl)-2-hydroxybenzenesulfonamide]
- Ki: 400 nM

Compound: CCN(CC)CCS(=O)(=O)c1cc(Cl)cc(NS(=O)(=O)c2cc(Br)ccc2O)c1 [Example S40, 5-Bromo-N-(3-chloro-5-((2-(diethylamino)ethyl)sulfonyl)phenyl)-2-hydroxybenzenesulfonamide]
- Ki: 4380 nM

Compound: CC(C)N(CCS(=O)(=O)c1cc(Cl)cc(NS(=O)(=O)c2cc(Br)ccc2O)c1)C(C)C [Example S41, 5-Bromo-N-(3-chloro-5-((2-(diisopropylamino)ethyl)sulfonyl)phenyl)-2-hydroxybenzenesulfonamide]
- Ki: 3810 nM

Compound: CCN(CC)CCS(=O)(=O)c1cc(Cl)cc(NS(=O)(=O)c2cc(Br)cc3cccnc23)c1 [Example S43, 6-Bromo-N-(3-chloro-5-((2-(diethylamino)ethyl)sulfonyl)phenyl)quinoline-8-sulfonamide]
- Ki: 31300 nM

Compound: CCN(CC)CCS(=O)(=O)c1cc(Cl)cc(NS(=O)(=O)c2cc(Br)ccc2OC)c1 [Example S46, 5-Bromo-N-(3-chloro-5-((2-(diethylamino)ethyl)sulfonyl)phenyl)-2-methoxybenzenesulfonamide]
- Ki: 20600 nM

Compound: COc1ccc(Br)cc1S(=O)(=O)Nc1cc(Cl)cc(S(C)(=O)=O)c1O [Example S49, 5-Bromo-N-(5-chloro-2-hydroxy-3-(methylsulfonyl)phenyl)-2-methoxybenzenesulfonamide]
- Ki: 290 nM

Compound: CN(C)CCCS(=O)(=O)c1cc(Cl)cc(NS(=O)(=O)c2cc(Br)ccc2O)c1 [Example S52, 5-Bromo-N-(3-chloro-5-((3-(dimethylamino)propyl)sulfonyl)phenyl)-2-hydroxybenzenesulfonamide]
- Ki: 830 nM

Compound: CS(=O)(=O)c1cc(Cl)cc(NS(=O)(=O)c2cc(Br)cc(Cl)c2O)c1F [Example S54, 5-Bromo-3-chloro-N-(5-chloro-2-fluoro-3-(methylsulfonyl)phenyl)-2-hydroxybenzenesulfonamide]
- Ki: 800 nM

Compound: CS(=O)(=O)c1cc(Cl)cc(NS(=O)(=O)c2cc(Br)cc3c2OCC3)c1O [Example S55, 5-Bromo-N-(5-chloro-2-hydroxy-3-(methylsulfonyl)phenyl)-2,3-dihydrobenzofuran-7-sulfonamide]
- Ki: 850 nM

Compound: CNC(=O)c1cc(S(F)(F)(F)(F)F)cc(NS(=O)(=O)c2cc(Br)cc(Cl)c2O)c1O [Example S63, 3-((5-Bromo-3-chloro-2-hydroxyphenyl)sulfonamido)-2-hydroxy-N-methyl-5-(pentafluoro-λ^6-sulfaneyl)benzamide]
- Ki: 160 nM

Compound: O=C(O)c1cc(S(F)(F)(F)(F)F)cc(NS(=O)(=O)c2cc(Br)ccc2O)c1O [Example S65, 3-((5-Bromo-2-hydroxyphenyl)sulfonamido)-2-hydroxy-5-(pentafluoro-λ^6-sulfaneyl)benzoic acid]
- Ki: 30 nM

Compound: CNC(=O)c1cc(S(F)(F)(F)(F)F)cc(NS(=O)(=O)c2cc(Br)ccc2O)c1O [Example S66, 3-((5-Bromo-2-hydroxyphenyl)sulfonamido)-2-hydroxy-N-methyl-5-(pentafluoro-λ^6-sulfaneyl)benzamide]
- Ki: 20 nM

Compound: CNC(=O)c1cc(S(F)(F)(F)(F)F)cc(NS(=O)(=O)c2cc(Br)cc3cccnc23)c1O [Example S67]
- Ki: 90 nM

Compound: O=C(O)c1cc(S(F)(F)(F)(F)F)cc(NS(=O)(=O)c2cc(Br)cc3cccnc23)c1O [Example S68]
- Ki: 20 nM

Results, then the compound that gave them:

- Ki: 510 nM
Compound: CCN(CC)CCSc1cc(Cl)cc(NS(=O)(=O)c2cc(Br)cc(Cl)c2O)c1 [Example S34, 5-Bromo-3-chloro-N-(3-chloro-5-((2-(diethylamino)ethyl)thio)phenyl)-2-hydroxybenzenesulfonamide]

- Ki: 340 nM
Compound: CCN(CC)CCS(=O)(=O)c1cc(Cl)cc(NS(=O)(=O)c2cc(Br)cc(Cl)c2O)c1 [Example S35, 5-Bromo-3-chloro-N-(3-chloro-5-((2-(diethylamino)ethyl)sulfonyl)phenyl)-2-hydroxybenzenesulfonamide]

- Ki: 1450 nM
Compound: CN(C)CCCS(=O)(=O)c1cc(Cl)cc(NS(=O)(=O)c2cc(Br)cc(Cl)c2O)c1 [Example S51, 5-Bromo-3-chloro-N-(3-chloro-5-((3-(dimethylamino)propyl)sulfonyl)phenyl)-2-hydroxybenzenesulfonamide]

- Ki: 310 nM
Compound: COc1ccc(Br)cc1S(=O)(=O)Nc1cc(C2(C#N)CCC2)cc(S(C)(=O)=O)c1O [Example S59, 5-Bromo-N-(5-(1-cyanocyclobutyl)-2-hydroxy-3-(methylsulfonyl)phenyl)-2-methoxybenzenesulfonamide]

- Ki: 50 nM
Compound: CS(=O)(=O)c1cc(C2(C#N)CCC2)cc(NS(=O)(=O)c2cc(Br)cc(Cl)c2O)c1O [Example S60, 5-Bromo-3-chloro-N-(5-(1-cyanocyclobutyl)-2-hydroxy-3-(methylsulfonyl)phenyl)-2-hydroxybenzenesulfonamide]

- Ki: 190 nM
Compound: CS(=O)(=O)c1cc(C2(C#N)CCC2)cc(NS(=O)(=O)c2cc(Br)cc3cccnc23)c1O [Example S61, 6-Bromo-N-(5-(1-cyanocyclobutyl)-2-hydroxy-3-(methylsulfonyl)phenyl)quinoline-8-sulfonamide]

- Ki: 20 nM
Compound: O=C(O)c1cc(S(F)(F)(F)(F)F)cc(NS(=O)(=O)c2cc(Br)cc(Cl)c2O)c1O [Example S64, 3-((5-Bromo-3-chloro-2-hydroxyphenyl)sulfonamido)-2-hydroxy-5-(pentafluoro-λ^6-sulfaneyl)benzoic acid]

- Ki: 770 nM
Compound: CNC(=O)c1cc(Cl)cc(NS(=O)(=O)c2cc(Br)cc(Cl)c2O)c1 [Example S69, 3-((5-Bromo-3-chloro-2-hydroxyphenyl)sulfonamido)-5-chloro-N-methylbenzamide]

- Ki: 2930 nM
Compound: CNC(=O)c1cc(Cl)cc(NS(=O)(=O)c2cc(Br)ccc2O)c1 [Example S70, 3-((5-Bromo-2-hydroxyphenyl)sulfonamido)-5-chloro-N-methylbenzamide]

- Ki: 10 nM
Compound: N#CC1(c2cc(NS(=O)(=O)c3cc(Br)cc(Cl)c3O)cc(C(=O)O)c2)CCC1 [Example S71, 3-((5-Bromo-3-chloro-2-hydroxyphenyl)sulfonamido)-5-(1-cyanocyclobutyl)benzoic acid]

- Ki: 150 nM
Compound: CS(=O)(=O)c1cc(NS(=O)(=O)c2cc(Br)cc(Cl)c2O)cc(C2(C#N)CCC2)c1 [Example S72, 5-Bromo-3-chloro-N-(3-(1-cyanocyclobutyl)-5-(methylsulfonyl)phenyl)-2-hydroxybenzenesulfonamide]
